This data set concerns human dermal fibroblast cells (Invitrogen C-013-5C). The data set is described as follows: Cell vitality of human dermal fibroblast cells after 24 h incubation. Type of data set: cell-based. As to the method:
The human dermal fibroblast cells, (Invitrogen C-013-5C) were cultured in humid conditions comprising 37±0.5° C. and 5% CO2 according to the instructions of the producer. […] Oxidative stress parameters such as total glutation, malondialdehyde, and superoxide dismutase and glutation peroxidase have been examined inside the cells that have been analyzed.

Turning to `Oc1ccc(C=Cc2cc(O)cc(O)c2)cc1` [Resveratrol solution, resveratrol], the “cytotoxic potential (cell vitality)” value is on record as “not to have cytotoxic potential”. Besides, the cell proliferation effect entry (concentrations corresponding to 50 μM resveratrol content) is on record as “cell proliferation increasing effects”.

Values taken from patent US9517215B2, “Dermal matrix and production method thereof having synergistic effects comprising microparticles which provides tissue repair” (T.C. EGE UNIVERSITESI, priority 2013, dated 2016).
